The species named for this experiment is Homo sapiens. Description: Concentration that inhibits transcriptional activation of Tat protein in human cells. Format: functional, cell-based.

Data on two compounds can be found in ChEMBL document CHEMBL1134192, “Targeting RNA with peptidomimetic oligomers in human cells” (Bioorg Med Chem Lett, 2001).

As usually defined, the IC50 is the midpoint of a concentration-inhibition curve. A low value points to greater potency.

`N=C(N)NCCC[C@@H](COC(=O)N[C@@H](CCCCN)COC(=O)N[C@@H](CCCCN)COC(=O)N[C@@H](CCCN=C(N)N)COC(=O)N[C@@H](CCCN=C(N)N)COC(=O)N[C@@H](CCC(N)=O)COC(=O)N[C@@H](CCCN=C(N)N)COC(=O)N[C@@H](CCCN=C(N)N)COC(=O)N[C@@H](CCCN=C(N)N)C(=O)O)NC(=O)OCCNC(=O)[C@@H](N)Cc1ccc(O)cc1` had an IC50 of 500 nM.
The compound `NCCCC[C@H](CNC(=O)N[C@H](CCCCN)CNC(=O)N[C@H](CCCN=C(N)N)CNC(=O)N[C@H](CCCN=C(N)N)CNC(=O)N[C@H](CCC(N)=O)CNC(=O)N[C@H](CCCN=C(N)N)CNC(=O)N[C@H](CCCN=C(N)N)CNC(=O)N[C@H](CCCN=C(N)N)CNC(=O)[C@@H](N)Cc1ccc(O)cc1)NC(=O)NC[C@@H](CCCN=C(N)N)NC(=O)NCCNC(N)=O` registered a concentration for half-maximal inhibition (IC50) of 1000 nM.
